19 compounds from US9896441B2 (Lycera Corporation, priority 2014, dated 2018) can be followed below.

For assay [1], the target named is T1, RORγ-LBD (Homo sapiens, UniProt P51449).
T1 construct: made in house; host or cells: SF9 cells (baculovirus); used as diluted lysate
T1 sequence (P51449 269-508 limits assumed): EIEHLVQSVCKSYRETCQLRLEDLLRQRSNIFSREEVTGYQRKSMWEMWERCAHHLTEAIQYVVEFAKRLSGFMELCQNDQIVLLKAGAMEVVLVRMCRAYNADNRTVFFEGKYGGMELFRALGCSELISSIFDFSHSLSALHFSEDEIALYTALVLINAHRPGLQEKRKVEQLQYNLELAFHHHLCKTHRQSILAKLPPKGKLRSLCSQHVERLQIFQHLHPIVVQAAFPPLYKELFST
Put plainly: RORγ-Ligand Binding Domain (LBD) TR-FRET Assay.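 On TR-FRET Assay Max Response: 665/615 nm signal ratio set to 100 without ursolic acid or test compound.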 It counts as biochemical. The note with it: for TR-FRET Assay Max Response: maximum response. In outline:
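Compounds, diluted in DMSO and then in assay buffer (1% DMSO final), were combined with His-tagged RORγ-LBD lysate at roughly 3 nM final and a 200 nM biotinylated SRC1 LXXLL peptide. Ursolic acid was included at 2 μM final. Coactivator recruitment was detected by TR-FRET.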

For assay [2], the target named is T2, Gal4-RORγ-LBD (Homo sapiens, UniProt P51449).
T2 construct: expressed in transfected cells
T2 sequence (P51449 269-508 limits assumed): T1 sequence (P51449 269-508 limits assumed)
Put plainly: Gal4-RORγ Luciferase Reporter Assay in HEK-293T Cells. Type of assay: cell-based. The following applies: HEK-293 cells, luciferase reporter; for Gal4-RORγ Assay Max Response: maximum response. In outline:
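Max Response was taken as the upper plateau of a 4-parameter logistic fit of luciferase signal, normalized to 100 for wells without ursolic acid or compound. Transiently Gal4-RORγ-LBD/Gal4-luc transfected HEK-293 cells carrying […] ursolic acid were incubated with test compounds (0.2% DMSO) overnight at 37 °C and read with One-Glo.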
In general terms: In a reporter assay the amount or activity of a reporter protein is the signal.

Structures are written as SMILES.

As to `COC(=O)CC[C@H]1CN(S(=O)(=O)c2ccc(F)c(C3CC3)c2)c2cc(/C=C(\C)c3c(F)cccc3Cl)ccc2O1` [Example 86D, (S,E)-methyl 3-(6-(2-(2-chloro-6-fluorophenyl)prop-1-en-1-yl)-4-((3-cyclopropyl-4-fluorophenyl)-sulfonyl)-3,4-dihydro-2H-benzo[b][1,4]oxazin-2-yl)propanoate], the EC50 in assay [1] (RORγ-LBD TR-FRET) and in assay [2] (with ursolic acid) was less than 500 nM each time.

Consider `C/C(=C\c1ccc2c(c1)N(S(=O)(=O)c1cccc(C(F)(F)F)c1)C[C@H](CCN1CCS(=O)(=O)CC1)O2)c1c(F)cccc1Cl` [Example 119G, (S,E)-4-(2-(6-(2-(2-chloro-6-fluorophenyl)prop-1-en-1-yl)-4-((3-(trifluoromethyl)phenyl)sulfonyl)-3,4-dihydro-2H-benzo[b][1,4]oxazin-2-yl)ethyl)thiomorpholine 1,1-dioxide], for which, in assay [1] (RORγ-LBD TR-FRET assay), the EC50 (commonly the concentration at which the effect is half-maximal) was less than 500 nM and the “TR-FRET Assay Max Response” value is given as “*** (a value in the range of greater than 150 to 200)”. For the same compound, in assay [2] (in presence of ursolic acid), the EC50 was less than 500 nM and the “Gal4-RORγ Assay Max Response” value is “* (a value in the range of 30 to 90)”.

Take `C/C(=C\c1ccc2c(c1)N(S(=O)(=O)c1ccc(F)c(OC(F)F)c1)C[C@H](CCC(=O)O)O2)c1c(F)cccc1Cl` [Example 86AS, (S,E)-3-(6-(2-(2-chloro-6-fluorophenyl)prop-1-en-1-yl)-4-((3-(difluoromethoxy)-4-fluorophenyl)sulfonyl)-3,4-dihydro-2H-benzo[b][1,4]oxazin-2-yl)propanoic acid]: the concentration for a half-maximal effect (EC50) in assay [1] (RORγ-LBD TR-FRET) and in assay [2] (with ursolic acid) was less than 500 nM each time.

As to `COC(=O)CC[C@H]1CN(S(=O)(=O)c2cc(C(F)(F)F)cnc2OC[C@H](C)O)c2cc(/C=C/c3c(F)cccc3Cl)ccc2O1` [Example 89FN, methyl 3-((S)-6-((E)-2-chloro-6-fluorostyryl)-4-((2-((S)-2-hydroxypropoxy)-5-(trifluoromethyl)pyridin-3-yl)sulfonyl)-3,4-dihydro-2H-benzo[b][1,4]oxazin-2-yl)propanoate], the EC50 in assay [1] (RORγ-LBD TR-FRET) is less than 500 nM; in assay [2] (with ursolic acid), 500 to 5000 nM.

`Cc1cccc2c1c(/C=C/c1ccc3c(c1)N(S(=O)(=O)c1cccc(C(F)(F)F)c1)C[C@H](CCC(=O)O)O3)nn2C` [Example 89BN, (S,E)-3-(6-(2-(1,4-dimethyl-1H-indazol-3-yl)vinyl)-4-((3-(trifluoromethyl)phenyl)sulfonyl)-3,4-dihydro-2H-benzo[b][1,4]oxazin-2-yl)propanoic acid]: the EC50 in assay [1] (RORγ-LBD TR-FRET) was less than 500 nM; in assay [2] (with ursolic acid), 500 to 5000 nM.

`O=C(O)CC[C@H]1CN(S(=O)(=O)c2cccc(C(F)(F)F)c2)c2cc(/C=C/c3cc(F)ccc3C(F)(F)F)ccc2O1` [Example 89CP, (S,E)-3-(6-(5-fluoro-2-(trifluoromethyl)styryl)-4-((3-(trifluoromethyl)phenyl)sulfonyl)-3,4-dihydro-2H-benzo[b][1,4]-oxazin-2-yl)propanoic acid]: the EC50 in assay [1] (RORγ-LBD TR-FRET) and in assay [2] (with ursolic acid) was less than 500 nM each time.

Regarding `COc1cc(S(=O)(=O)N2CCCc3ccc(OCc4c(F)cccc4C(F)(F)F)cc32)ccc1F` [Example 25R, 1-((4-fluoro-3-methoxyphenyl)sulfonyl)-7-((2-fluoro-6-(trifluoromethyl)benzyl)oxy)-1,2,3,4-tetrahydroquinoline], the EC50 in assay [1] (RORγ-LBD TR-FRET) and in assay [2] (with ursolic acid) was less than 500 nM throughout.

For `CC(=O)N[C@H](C)[C@H]1CN(S(=O)(=O)c2cccc(C(F)(F)F)c2)c2cc(/C=C(\C)c3c(F)cccc3Cl)ccc2O1` [Example 103, N—((R)-1-((R)-6-((E)-2-(2-Chloro-6-fluorophenyl)prop-1-en-1-yl)-4-((3-(trifluoromethyl)phenyl)sulfonyl)-3,4-dihydro-2H-benzo[b][1,4]oxazin-2-yl)ethyl)acetamide], the EC50 in assay [1] (RORγ-LBD TR-FRET) and in assay [2] (with ursolic acid) was less than 500 nM each time.

`COC(=O)CC[C@H]1CN(S(=O)(=O)c2ccc(F)c(C(F)(F)F)c2)c2cc(/C=C(\C)c3c(F)cccc3Cl)ccc2O1` [Example 86B, (S,E)-methyl 3-(6-(2-(2-chloro-6-fluorophenyl)prop-1-en-1-yl)-4-((4-fluoro-3-(trifluoromethyl)-phenyl)sulfonyl)-3,4-dihydro-2H-benzo[b][1,4]oxazin-2-yl)propanoate]: the EC50 in assay [1] (RORγ-LBD TR-FRET) and in assay [2] (with ursolic acid) was less than 500 nM throughout.

For `CCOc1ncc(C(F)(F)F)cc1S(=O)(=O)N1C[C@H](CCC(=O)O)Oc2ccc(/C=C/c3c(Cl)cccc3OC)cc21` [Example 89FA, (S,E)-3-(6-(2-chloro-6-methoxystyryl)-4-((2-ethoxy-5-(trifluoromethyl)pyridin-3-yl)sulfonyl)-3,4-dihydro-2H-benzo[b][1,4]oxazin-2-yl)propanoic acid], the EC50 in assay [1] (RORγ-LBD TR-FRET) and in assay [2] (with ursolic acid) was less than 500 nM throughout.

Take `O=S(=O)(c1cccc(C(F)(F)F)c1)N1C[C@@H](O)Cc2ccc(OCc3c(F)cccc3Cl)cc21` [Example 158, (S)-7-((2-Chloro-6-fluorobenzyl)oxy)-1-((3-(trifluoromethyl)phenyl)sulfonyl)-1,2,3,4-tetrahydroquinolin-3-ol]: the EC50 in assay [1] (RORγ-LBD TR-FRET assay) and in assay [2] (in presence of ursolic acid) was less than 500 nM each time.

As to `COC(=O)CC[C@H]1CN(S(=O)(=O)c2cc(F)cc(C(F)(F)F)c2)c2cc(/C=C(\C)c3c(F)cccc3Cl)ccc2O1` [Example 86AR, (S,E)-methyl 3-(6-(2-(2-chloro-6-fluorophenyl)prop-1-en-1-yl)-4-((3-fluoro-5-(trifluoromethyl)-phenyl)sulfonyl)-3,4-dihydro-2H-benzo[b][1,4]oxazin-2-yl)propanoate], the EC50 was less than 500 nM in assay [1] (RORγ-LBD TR-FRET) and 500 to 5000 nM in assay [2] (with ursolic acid).

On to `C/C(=C\c1ccc2c(c1)N(S(=O)(=O)c1cccc(C(F)(F)F)c1)CC(C(=O)O)C2)c1c(F)cccc1C(F)(F)F` (centres unmarked) [Example 15C, (E)-7-(2-(2-fluoro-6-(trifluoromethyl)phenyl)prop-1-en-1-yl)-1-((3-(trifluoromethyl)phenyl)sulfonyl)-1,2,3,4-tetrahydroquinoline-3-carboxylic acid], for which the EC50 in assay [1] (RORγ-LBD TR-FRET) is less than 500 nM; in assay [2] (with ursolic acid) it was 500 to 5000 nM.

On to `O=C(O)C1CN(C(=O)CC[C@H]2CN(S(=O)(=O)c3cccc(C(F)(F)F)c3)c3cc(/C=C/c4c(Cl)cccc4C(F)(F)F)ccc3O2)C1` [Example 129G, (S,E)-1-(3-(6-(2-chloro-6-(trifluoromethyl)styryl)-4-((3-(trifluoromethyl)-phenyl)sulfonyl)-3,4-dihydro-2H-benzo[b][1,4]oxazin-2-yl)propanoyl)azetidine-3-carboxylic acid], for which, in assay [1] (RORγ-LBD TR-FRET assay), the EC50 was less than 500 nM and the “TR-FRET Assay Max Response” value is reported as “**** (a value greater than 200)”. Moreover, in assay [2] (in presence of ursolic acid), the EC50 is less than 500 nM and the “Gal4-RORγ Assay Max Response” value is given as “** (a value in the range of greater than 90 to 150)”.

In the case of `C/C(=C\c1ccc2c(c1F)N(S(=O)(=O)c1cccc(C(F)(F)F)c1)C[C@H](CCC(=O)O)O2)c1c(F)cccc1Cl` [Example 62, (S,E)-3-(6-(2-(2-Chloro-6-fluorophenyl)prop-1-en-1-yl)-5-fluoro-4-((3-(trifluoromethyl)phenyl)sulfonyl)-3,4-dihydro-2H-benzo[b][1,4]oxazin-2-yl)propanoic acid], the EC50 is less than 500 nM in assay [1] (RORγ-LBD TR-FRET) and 500 to 5000 nM in assay [2] (with ursolic acid).

On to `COC(=O)CCC1CC(S(=O)(=O)c2ccc(F)c(OC)c2)c2cc(OCc3c(F)cccc3Cl)ccc2O1` (centres unmarked) [Example 178, Methyl 3-(6-((2-chloro-6-fluorobenzyl)oxy)-4-((4-fluoro-3-methoxyphenyl)sulfonyl)chroman-2-yl)propanoate], for which, in assay [1] (RORγ-LBD TR-FRET assay), the EC50 was less than 500 nM and the “TR-FRET Assay Max Response” value is on record as “** (a value in the range of greater than 90 to 150)”. Also, in assay [2] (in presence of ursolic acid), the EC50 lay within 500 to 5000 nM and the “Gal4-RORγ Assay Max Response” value is reported as “** (a value in the range of greater than 90 to 150)”.

On to `Cc1ccnc(/C=C/c2ccc3c(c2)N(S(=O)(=O)c2cccc(C(F)(F)F)c2)C[C@H](CCC(=O)O)O3)c1F` [Example 89CH, (S,E)-3-(6-(2-(3-fluoro-4-methylpyridin-2-yl)vinyl)-4-((3-(trifluoromethyl)phenyl)sulfonyl)-3,4-dihydro-2H-benzo[b][1,4]-oxazin-2-yl)propanoic acid], for which the EC50 in assay [1] (RORγ-LBD TR-FRET) was less than 500 nM; in assay [2] (with ursolic acid) it was more than 10000 nM.

On to `N[C@@H]1Cc2ccc(OCc3c(F)cccc3Cl)cc2N(S(=O)(=O)c2cccc(C(F)(F)F)c2)C1` [Example 159, (R)-7-((2-Chloro-6-fluorobenzyl)oxy)-1-((3-(trifluoromethyl)phenyl)sulfonyl)-1,2,3,4-tetrahydroquinolin-3-amine], for which the EC50 in assay [1] (RORγ-LBD TR-FRET assay) is less than 500 nM; in assay [2] (in presence of ursolic acid), 500 to 5000 nM.

For `N#Cc1cccnc1/C=C/c1ccc2c(c1)N(S(=O)(=O)c1cccc(C(F)(F)F)c1)C[C@H](CCC(=O)O)O2` [Example 89DL, (S,E)-3-(6-(2-(3-cyanopyridin-2-yl)vinyl)-4-((3-(trifluoromethyl)-phenyl)sulfonyl)-3,4-dihydro-2H-benzo[b][1,4]oxazin-2-yl)propanoic acid], the results for the EC50 in assay [1] (RORγ-LBD TR-FRET) and in assay [2] (with ursolic acid) were less than 500 nM and 500 to 5000 nM, respectively.
